Source: patent US20260124223A1, “CANCER IMMUNOTHERAPIES” (Northwestern University, priority 2022, published 2026)
Values joined by “and” are separate entries in the source; they are usually repeats but may differ in a detail not shown here. Identical values can stand only once. Like-named read-outs stand apart in the source and are kept apart here.

Experiments:
GL261 tumor-bearing mice = settings: LIPU/MB+IC+DOX
Procedure: Cell culture. […] Both cell lines were cultured in Dulbecco's modified Eagle's medium (Gibco) supplemented with 10% fetal bovine serum (Gibco), and 1% penicillin/streptomycin (Gibco) in 5% CO2 incubators at 37° C. […] QPP4 cells were maintained in Dulbecco's modified Eagle's medium/F-12 (Gibco) supplemented with B-27 (Gibco), recombinant epidermal growth factor (EGF, 20 ng/ml, PeproTech), and recombinant basic fibroblast growth factor (bFGF, 20 ng/ml, PeproTech).
Animal Experiments. […] All murine cell lines used for this study were routinely tested for mycoplasma and were confirmed negative before intracranial orthotopic injection. To perform intracranial injection of syngeneic murine glioma cell lines, mice were anesthetized with ketamine/xylazine cocktail. Artificial tears were used to prevent eye drying and protect the eye. […] Mice were monitored daily and were euthanized when they approached the endpoint (weight loss is >20% of pre-treatment body weight or loss of mobility or severe neurological disabilities such as seizure, circular motion, etc.) as described in the IACUC protocol.
LIPU/MB. […] Sonications were performed for 120 seconds using a 25,000-cycle burst at a 1 Hz pulse repetition frequency and an acoustic pressure of 0.3 MPa as measured in water. After sonications, mice were moved to a clean cage, placed upon a heating pad, and monitored until they recovered from anesthesia.

CT2A = assay: H-2Kb expression in CT2A cells by flow cytometry; format: cell-based, mouse; settings: similar DOX concentration range, compared to no treatment
recurrent GBM patients [1] = assay: Multiplex immunofluorescence of FcγRIIIA on TAMs, pre-DOX and during-DOX GBM samples; format: in vivo, human; settings: DOX+aPD-1 with concomitant LIPU/MB, vs tissue before treatment, 4 patients
Excerpt: Multiplex immunofluorescence staining/cellular identification and phenotyping. The multiplex panel included the following unconjugated antibodies: GFAP (glioma cells), CD11c (antigen presenting cells), CD68 (pan monocyte/macrophage), CD163 (macrophage scavenger receptor), FcγRIIIA (Receptor binding the Fc region of IgG, CD16A). All antibodies were validated using conventional immunofluorescence (IF) staining in conjunction with the corresponding fluorophore and the spectral 4′,6-diamidino-2-pheynlindole (DAPI; ThermoFisher Scientific) counterstain. For optimal concentration and best signal/noise ratio all antibodies were tested at three different dilutions, starting with the manufacturer-recommended dilution (MRD), then MRD/2 and MRD/4. Secondary Alexa fluorophore 555 (ThermoFisher Scientific) and Alexa fluorophore 647 (ThermoFisher Scientific) were used at 1/200 and 1/400 dilutions respectively. […]
Slides are automatically scanned using the Lunaphore COMET™ with fluorescent high-power field scan (20× magnification microscope). […] The OME.TIFF images ware analyzed in Visiopharm software for immune populations' configuration and quantification.
All digitized images were analyzed using the Visiopharm software platform (Hørsholm, Denmark). […]

HMC3 = assay: FCGR3A / FcγRIIIA expression in HMC3 cells (qRT-PCR, flow cytometry); format: cell-based, human; settings: DOX 5 hours, fresh media 72 hours
Procedure: (§1) Flow cytometry of PDX cell lines and HMC3 cells. PDX cell lines were kindly gifted. HMC3 cells were acquired from ATCC. GBM6, GBM63 and HMC3 cells were seeded on 6-well plates for treatment with increasing concentrations of DOX hydrochloride (D1515, Sigma Aldrich), IFN-γ (300-02, Peprotech) or 50 μM of TMZ (Accord). PDX and HMC3 cells were treated for 5 hours followed by 3 washes with PBS and cultured afterwards with Dulbecco's modified Eagle's medium (Corning) supplemented with 10% FBS (Hyclone) and 1% penicillin/streptomycin (Corning). 72 hours after treatment, PDX cells were harvested using Accutase cell detachment solution (Corning) and were stained initially with eBioscience Fixable Viability Dye eFluor 780 (Thermo Fisher) at 1:1000 dilution. Staining with HLA ABC AF-647 (311414) and HLA-DR BV421 (307636) was done for PDX cells. IFN-γ AF-700 (502520), HLA ABC FITC (311404), PD-L1 Pe-Cy7 (374506). All antibodies for this experiment were from Biolegend. Data was acquired using BD FACSymphony Flow Cytometer.

GL261 = assay: H-2Kb expression in GL261 cells by flow cytometry; format: cell-based, mouse; settings: similar DOX concentration range, compared to no treatment
CT2A-bearing mice = assay: Survival of CT2A-bearing mice treated with aPD-1, liposomal DOX, US/MB; format: in vivo, mouse
Procedure: (§2) Ultrasound-mediated BBB opening in mouse models.
(§3) Cell lines and implantable syngeneic murine glioma models for survival and immunophenotyping studies. Murine GL261 cell line was acquired from the National Institutes of Health. CT2A cell line was acquired from Millipore. GL261 and CT2A were cultured in Dulbecco's modified Eagle's medium (Corning) supplemented with 10% FBS (Hyclone) and 1% penicillin/streptomycin (Corning) at 37° C. in incubators with humified atmosphere of 5% CO2 and 95% air.
(§4) After injection of glioma cells, the incision was closed using 9 mm stainless steel wound clips. On day 7 and 14 after IC implantation of glioma cell lines, mice were treated with liposomal DOX obtained from the pharmacy of Northwestern Memorial Hospital. On day 7, 10, 14, and 17 after IC injection of glioma cells, mice were treated with either […] of anti-mouse PD-1 (CD279) BE0146 (BioXcell) or rat IgG2a isotype control BE0089 (BioXcell).

GL261-bearing mice [2] = assay: Survival of GL261-bearing mice treated with liposomal DOX, aPD-1, US/MB; format: in vivo, mouse
Procedure: as §2, §3, §4

recurrent GBM patients [3] = assay: Multiplex immunofluorescence of pre-treatment and on-treatment human GBM samples; settings: tumors exposed to DOX vs before DOX
[4] = DOX concentration in blood, tumor and peritumoral brain tissue of GBM patients (LC/MS); format: in vivo, human; settings: for concentration at 48 h: human, intravenous, GBM patients, 48 hours after liposomal DOX with US/MB
Procedure: (§5) Patients received additional treatment cycles with sonications in an outpatient setting in which the US device was activated by percutaneous access with a single-use transdermal needle concomitantly with the injection of 10 μL/kg of IV microbubbles (DEFINITY, Lantheus, Billerica, USA) and 200 mg of pembrolizumab and 30 mg of liposomal DOX.
Determination of the DOX concentration in blood, tumor and peritumoral brain tissue. Two GBM patients undergoing surgery for resection of tumor with implantation of the Sonocloud-9 US device were studied for this analysis. […] Sonicated and non-sonicated peritumoral brain samples were identified taking into account their location relative to the sonication field of the US device. Non-sonicated peritumoral brain samples were acquired first with the use of a new set of surgical instruments for each sample. Every peritumoral brain tissue was washed with saline solution to remove blood. These samples were sectioned into 30 mg pieces and were flash-frozen for further quantification of DOX levels. DOX was quantified in tumor, peritumoral, and plasma using LC/MS (6500 QTRAP AB Sciex equipped with a SIL-20AC XR HPLC, Shimadzu Scientific Instruments).

GBM63 = assay: Flow cytometry of antigen-presenting molecules in PDX cell line GBM63; format: cell-based, human; settings: 5 hours exposure, 72 hours drug-free
Procedure: as §1

HMC3 cells = assay: Flow cytometry of IFNγ, HLA ABC and PD-L1 in HMC3 cells; format: cell-based, human; settings: 5-hour pulse, 72 hours, specific DOX concentrations
Procedure: as §1

GL261-bearing mice [5] = assay: Immunophenotyping of GL261-bearing mice treated with increasing doses of liposomal DOX with or without US/MB; format: in vivo, mouse; settings: 1 and 2 mg/kg; 5 mg/kg without US/MB
Procedure: as §2, §4

GBM6 = assay: Flow cytometry of antigen-presenting molecules in PDX cell line GBM6; format: cell-based, human; settings: 5 hours exposure, 72 hours drug-free, relative to no treatment
Procedure: as §1

[6] = system: brain metastases from melanoma; assay: Tumor volume in a melanoma brain metastasis patient, SonoCloud-1 (NCT04021420); format: in vivo, human
Excerpt: Analysis of SoniMel tumor volume of a brain metastatic patient. This patient was part of an ongoing clinical trial (NCT04021420) evaluating the combination of the immune checkpoint antibodies, ipilimumab and nivolumab, with BBB disruption employing the SC1 US device. The zone targeted by the skull implanted SC1 US emitter was modeled with a cylindrical region of interest (ROI) with a 10-mm diameter and 55-mm length. This ROI covered a part of the left-hemisphere tumoral mass and a part of its margin. The patient received administration every three weeks of 1 mg/kg of nivolumab (Brystol Myers Squibb) during 30 minutes of infusion and 3 mg/kg of ipilimumab (Brystol Myers Squibb) during 90 minutes of infusion prior to sonication. The SC1 US device was activated in combination with IV injection of microbubbles (0.1 mL/kg, SonoVue, Bracco) for a duration of 270 seconds at an acoustic pressure of 0.78 MPa, similar to the parameters used in a recent clinical trial in patients with recurrent GBM (Idbaih, A., et al., Clin Cancer Res 25, 3793-3801 (2019)). The evolution of the tumor volumes was evaluated for both sonicated and non-sonicated tumor masses using a semiautomatic active contour segmentation method (ITK Snap) (Yushkevich, P. A., et al., Neuroimage 31, 1116-1128 (2006)) using contrast-enhanced gadolinium T1w MR images with a threshold set at 1.25 times the median brain intensity. […]

[7] = mouse, in vivo
Procedure: C57BL/6 mice were employed for sonication experiments in which they were anesthetized with ketamine/xylazine cocktail intraperitoneally (ketamine 100 mg/kg, xylazine 10 mg/kg).
Determination of the concentration of nivolumab in brain from C57BL/6 mice. Non-tumor bearing C57BL/6 mice were used for this experiment. […] Nivolumab ELISA kit (ab237651, Abcam) was employed to determine nivolumab concentrations in the brain and blood. Mice were anesthetized with ketamine/xylazine cocktail and treated with artificial tears once fully anesthetized. Next, mice were treated with nivolumab through retro-orbital route. The dose used for mice was calculated based on allometric scaling which considers the animal equivalent dose based on body surface area converted from the human dose of 3 mg/kg of nivolumab (Nair, A. B. et al., J Basic Clin Pharm 7, 27-31 (2016)). After treatment with nivolumab, mice were placed in the US transducer holder for sonication as described above. Intravenous NaFI (Sigma-Aldrich) previously dissolved in PBS was administered immediately after sonication at a dose of 20 mg/kg in 100 μL. 1 and 4 hours after sonication, mice were euthanized using a CO2 chamber and brains were harvested and placed in PBS. […] Absorbance of samples (set to 450 nm) was read in Cytation 5 multi-mode reader (Biotek). […]

[8] = Pembrolizumab concentration in plasma, glioma and peritumoral brain of GBM patients (ELISA); format: in vivo, human
Procedure: as §5
Determination of the concentration of pembrolizumab in human glioma and peritumoral brain tissue Two GBM patients undergoing surgery for resection of tumor with implantation of the Sonocloud-9 US device were studied for this analysis. Pembrolizumab ELISA kit (ab237652, Abcam) was employed to determine pembrolizumab concentrations. After surgical resection, all samples were weighed. […] The rest of the experiment was done following manufacturer's kit protocol.

With `COc1cccc2c1C(=O)c1c(O)c3c(c(O)c1C2=O)C[C@@](O)(C(=O)CO)C[C@@H]3O[C@H]1C[C@H](N)[C@H](O)[C@H](C)O1` [DOX, Doxorubicin] the long-term survivors (GL261 tumor-bearing mice) was 16.7%, the H-2Kb expression (CT2A) was “upregulated” and the “frequency of FcγRIIIA+ CD68+ and CD11c+ TAMs” value (recurrent GBM patients [1]) was “increase in the frequency”. For the same compound, the “FCGR3A expression, times higher than in untreated microglia” value (HMC3) was about 16 times, the H-2Kb expression (GL261) was “upregulated” and the “survival in Cd8−/− and Cd8+/+ mice” value (CT2A-bearing mice; DOX plus anti-PD-1 antibody with US/MB, P=0.0452) was “survival benefit was only observed in mice that had intact immunity”. The long-term survival percentage (CT2A-bearing mice; anti-PD-1 antibody added to DOX plus US/MB) was 80%, the “percentage of CD4 IFN-γ+ TNF-α+ T cells” value (GL261-bearing mice [2]; DOX alone vs control, P=0.04) was “higher percentage” and the long-term survivors (GL261-bearing mice [2]; GL261, anti-PD-1 antibody added to DOX plus US/MB, vs DOX plus US/MB) was “same percentage of long-term survivors”. For the same compound, the “TMEM119+ cells expressing HLA I” value (recurrent GBM patients [3]; P=0.0092) was “increased number”, the “CD163+ cells expressing HLA I” value (recurrent GBM patients [3]; P=0.0712) was “increased number” and the “fold increase in DOX concentration, sonicated relative to non-sonicated peritumoral brain samples” value ([4]; 2 GBM patients, 48 hours, 95% CI of mean 1.406-2.659) was 2.033 fold. The concentration at 48 h ([4]; plasma, read-out: DOX plasma levels) was 8230 ng/mL and 14.2 µM, the concentration at 48 h ([4]; tumor, read-out: DOX tumor concentrations) was 146 ng/g to 2290 ng/g and 251 nM to 3.94 µM and the “DOX concentration range that upregulated HLA ABC and HLA-DR expression” value (GBM63) was 0.15 to 0.6 M. The “expression of HLA ABC” value (HMC3 cells) was “promoted”, the “expression of PD-L1” value (HMC3 cells) was “promoted” and the “production of IFNγ” value (HMC3 cells) was “promoted”. The “IFN-γ by glioma-associated myeloid cells” value (GL261-bearing mice [5]) was “no other doses of DOX nor the 5 mg/kg of dose delivered in the absence of US/MB elicited IFN-γ” and the “DOX concentration range that upregulated HLA ABC and HLA DR expression” value (GBM6) was 0.15 to 1.2 M.
With “ipilimumab: IgG1 anti-CTLA-4 antibody, given with nivolumab” the “tumor mass targeted by the SonoCloud-1 (sonicated)” value ([6]; ipilimumab 3 mg/kg and nivolumab 1 mg/kg prior to sonication) was “began to shrink after the second sonication” and the non-sonicated tumor mass ([6]; ipilimumab 3 mg/kg and nivolumab 1 mg/kg, until GammaKnife on day 130) was “continued to grow”.
In the case of “nivolumab: human IgG4 antibody that binds the PD-1 receptor”, the “nivolumab concentration in the plasma” value [7] is reported as “similar”.
In the case of pembrolizumab: anti-PD-1 antibody, the “fold increase in pembrolizumab concentration, sonicated vs non-sonicated peritumoral brain regions” value ([8]; 2 GBM patients, SonoCloud-9) is reported as 2.076 fold and the “anti-PD-1 antibody concentration in the serum” value ([8]; two GBM patients, 48 hours after treatment) is reported as 39.450 µg/mL and 45.099 µg/mL.
